Data published in patent US20040147578A1, “Use of lipoaminoacids as absorption promoters in a pharmaceutical composition” (priority 2001, published 2004).

Assay: In vitro permeation study in Franz cell
Format: in vitro ADME
Settings: receiver pH 7.4
From the text: These studies have been carried out using the most commonly used model in in vitro permeation studies. It is the Franz cell which is made up of two compartments separated by a membrane:
a donor compartment in which the composition to be studied is placed,
a membrane preimpregnated with a lipidic solution, made up of a mixture of phospholipids,
a receiver compartment containing an aqueous solution buffered at pH 7.4 under constant agitation, in which the active principle is recovered at regular intervals. Depending on the case, the composition of the medium can vary with the physico-chemical characteristics of the molecule.
These permeation studies were carried out by comparing each dispersed system comprising the lipoamino acid(s) with a simple solution of active principle.
The permeation expresses an active principle quantity which diffuses through a membrane per unit of surface and time (μg/cm^2/h).

Permeation (time 0 hours, aciclovir, topical-route system of Example 6 vs simple solution of active principle) [μg/cm^2/h]	Permeation (time 1 hour, aciclovir, topical-route system of Example 6 vs simple solution of active principle) [μg/cm^2/h]	Permeation (time 2 hours, aciclovir, topical-route system of Example 6 vs simple solution of active principle) [μg/cm^2/h]	Permeation (time 3 hours, aciclovir, topical-route system of Example 6 vs simple solution of active principle) [μg/cm^2/h]	Permeation (time 0 hours, progesterone, oral-route system of Example 3 vs simple solution of active principle) [μg/cm^2/h]	Permeation (time 0 hours, progesterone, transdermic-route system of Example 4 vs simple solution of active principle) [μg/cm^2/h]	Permeation (time 1 hour, progesterone, oral-route system of Example 3 vs simple solution of active principle) [μg/cm^2/h]	Permeation (time 1 hour, progesterone, transdermic-route system of Example 4 vs simple solution of active principle) [μg/cm^2/h]	Permeation (time 2 hours, progesterone, oral-route system of Example 3 vs simple solution of active principle) [μg/cm^2/h]	Permeation (time 2 hours, progesterone, transdermic-route system of Example 4 vs simple solution of active principle) [μg/cm^2/h]	Permeation (time 3 hours, progesterone, oral-route system of Example 3 vs simple solution of active principle) [μg/cm^2/h]	Permeation (time 3 hours, progesterone, transdermic-route system of Example 4 vs simple solution of active principle) [μg/cm^2/h]	SMILES
0	2.35	4.65	5.80									Nc1nc2c(ncn2COCCO)c(=O)[nH]1 [Aciclovir]
				0	0	0.2	0.25	0.4	0.43	0.8	0.85	CC(=O)[C@H]1CC[C@H]2[C@@H]3CCC4=CC(=O)CC[C@]4(C)[C@H]3CC[C@]12C [Progesterone]
